# Results published in US9113629B2, “4-amino-6-(4-substituted-phenyl)-picolinates and 6-amino-2-(4-substituted-phenyl)-pyrimidine-4-carboxylates and their use as herbicides” (DOW AGROSCIENCES LLC, priority 2013, dated 2015).
# Like-named read-outs stand apart in the source and are kept apart here.
# What was measured:
# [1] = tested on: Key Broadleaf Weed and Crop Species; test: Post-emergent Test II herbicidal activity (Table 5); type: in vivo; settings: for pest or weed control at 70 g/ha / pest or weed control at 140 g/ha: post-emergence, 336 h, 14 days after application
# Method: (§1) Post-emergent Test II: Seeds or nutlets of the desired test plant species were planted in Sun Gro Metro-Mix® 360 planting mixture, which typically has a pH of 6.0 to 6.8 and an organic matter content of about 30 percent, in plastic pots with a surface area of 64 square centimeters. When required to ensure good germination and healthy plants, a fungicide treatment and/or other chemical or physical treatment was applied. The plants were grown for 7-21 d in a greenhouse with an approximate 15 h photoperiod which was maintained at about 23-29° C. during the day and 22-28° C. during the night. Nutrients and water were added on a regular basis and supplemental lighting was provided with overhead metal halide 1000-Watt lamps as necessary. The plants were employed for testing when they reached the first or second true leaf stage.
# (§2) A weighed amount, determined by the highest rate to be tested, of each test compound was placed in a 25 mL glass vial and was dissolved in 4 mL of a 97:3 v/v mixture of acetone and DMSO to obtain concentrated stock solutions. […] The concentrated stock solutions obtained were diluted with 20 mL of an aqueous mixture containing acetone, water, isopropyl alcohol, DMSO. Atplus 411F crop oil concentrate, and Triton® X-155 surfactant in a 48.5:39:10:1.5:1.0:0.02 v/v ratio to obtain spray solutions containing the highest application rates. Additional application rates were obtained by serial dilution of 12 mL of the high rate solution into a solution containing 2 mL of 97:3 v/v mixture of acetone and DMSO and 10 mL of an aqueous mixture containing acetone, water, isopropyl alcohol, DMSO, Atplus 411F crop oil concentrate, and Triton X-155 surfactant in a 48.5:39:10:1.5:1.0:0.02 v/v ratio to obtain ½×, ¼×, ⅛× and 1/16× rates of the high rate. Compound requirements are based upon a 12 mL application volume at a rate of 187 liters per hectare (L/ha). Formulated compounds were applied to the plant material with an overhead Mandel track sprayer equipped with 8002E nozzles calibrated to deliver 187 L/ha over an application area of 0.503 square meters at a spray height of 18 inches (43 cm) above the average plant canopy height. Control plants were sprayed in the same manner with the solvent blank.
# (§3) The treated plants and control plants were placed in a greenhouse as described above and watered by subirrigation to prevent wash-off of the test compounds. After 14 d, the condition of the test plants as compared with that of the untreated plants was determined visually and scored on a scale of 0 to 100 percent where 0 corresponds to no injury and 100 corresponds to complete kill.
# [2] = tested on: Key Grass and Sedge Weeds as well as Grass Crops; test: Post-emergent Test II herbicidal activity (Table 6); type: in vivo; settings: for Visual Growth Reduction (%) 14 Days After Application, SORVU: SORVU: sorghum (Sorghum vulgare); for pest or weed control at 70 g/ha / pest or weed control at 140 g/ha: post-emergence, 336 h
# Method: as §1, §2, §3
smiles,measurement,setting,value
COC(=O)c1nc(-c2ccc([N+](=O)[O-])cc2F)c(F)c(N)c1Cl [Compound 80],"Visual Growth Reduction (%) 14 Days After Application, ABUTH","[1]; ABUTH: velvetleaf (Abutilon theophrasti), application rate 70 g ai/ha",G (0-29)
same,"Visual Growth Reduction (%) 14 Days After Application, ABUTH","[1]; ABUTH: velvetleaf (Abutilon theophrasti), application rate 140 g ai/ha",G (0-29)
same,"Visual Growth Reduction (%) 14 Days After Application, AMARE","[1]; AMARE: redroot pigweed (Amaranthus retroflexus), application rate 70 g ai/ha",D (60-74)
same,"Visual Growth Reduction (%) 14 Days After Application, AMARE","[1]; AMARE: redroot pigweed (Amaranthus retroflexus), application rate 140 g ai/ha",B (85-94)
same,"Visual Growth Reduction (%) 14 Days After Application, BRSNN","[1]; BRSNN: oilseed-rape, canola (Brassica napus), application rate 70 g ai/ha",G (0-29)
same,"Visual Growth Reduction (%) 14 Days After Application, BRSNN","[1]; BRSNN: oilseed-rape, canola (Brassica napus), application rate 140 g ai/ha",G (0-29)
same,"Visual Growth Reduction (%) 14 Days After Application, CHEAL","[1]; CHEAL: lambsquarters (Chenopodium album), application rate 70 g ai/ha",A (95-100)
same,"Visual Growth Reduction (%) 14 Days After Application, CHEAL","[1]; CHEAL: lambsquarters (Chenopodium album), application rate 140 g ai/ha",A (95-100)
same,"Visual Growth Reduction (%) 14 Days After Application, EPHHL","[1]; EPHHL: wild poinsettia (Euphorbia heterophylla), application rate 70 g ai/ha",C (75-84)
same,"Visual Growth Reduction (%) 14 Days After Application, EPHHL","[1]; EPHHL: wild poinsettia (Euphorbia heterophylla), application rate 140 g ai/ha",C (75-84)
same,"Visual Growth Reduction (%) 14 Days After Application, HELAN","[1]; HELAN: sunflower (Helianthus annuus), application rate 70 g ai/ha",D (60-74)
same,"Visual Growth Reduction (%) 14 Days After Application, HELAN","[1]; HELAN: sunflower (Helianthus annuus), application rate 140 g ai/ha",C (75-84)
same,"Visual Growth Reduction (%) 14 Days After Application, VIOTR","[1]; VIOTR: wild pansy (Viola tricolor), application rate 70 g ai/ha",G (0-29)
same,"Visual Growth Reduction (%) 14 Days After Application, VIOTR","[1]; VIOTR: wild pansy (Viola tricolor), application rate 140 g ai/ha",G (0-29)
same,"Visual Growth Reduction (%) 14 Days After Application, CYPES","[2]; CYPES: yellow nutsedge (Cyperus esculentus), 70 g ai/ha",G (0-29)
same,"Visual Growth Reduction (%) 14 Days After Application, CYPES","[2]; CYPES: yellow nutsedge (Cyperus esculentus), 140 g ai/ha",G (0-29)
same,"Visual Growth Reduction (%) 14 Days After Application, DIGSA","[2]; DIGSA: crabgrass (Digitaria sanguinalis), 70 g ai/ha",G (0-29)
same,"Visual Growth Reduction (%) 14 Days After Application, DIGSA","[2]; DIGSA: crabgrass (Digitaria sanguinalis), 140 g ai/ha",G (0-29)
same,"Visual Growth Reduction (%) 14 Days After Application, ECHCG","[2]; ECHCG: barnyardgrass (Echinochloa crus-galli), 70 g ai/ha",G (0-29)
same,"Visual Growth Reduction (%) 14 Days After Application, ECHCG","[2]; ECHCG: barnyardgrass (Echinochloa crus-galli), 140 g ai/ha",G (0-29)
same,"Visual Growth Reduction (%) 14 Days After Application, ORYSA","[2]; ORYSA: rice (Oryza sativa), crop, 70 g ai/ha",G (0-29)
same,"Visual Growth Reduction (%) 14 Days After Application, ORYSA","[2]; ORYSA: rice (Oryza sativa), crop, 140 g ai/ha",G (0-29)
same,"Visual Growth Reduction (%) 14 Days After Application, SETFA","[2]; SETFA: giant foxtail (Setaria faberi), 70 g ai/ha",G (0-29)
same,"Visual Growth Reduction (%) 14 Days After Application, SETFA","[2]; SETFA: giant foxtail (Setaria faberi), 140 g ai/ha",G (0-29)
same,"Visual Growth Reduction (%) 14 Days After Application, SORVU",[2]; 70 g ai/ha,G (0-29)
same,"Visual Growth Reduction (%) 14 Days After Application, SORVU",[2]; 140 g ai/ha,G (0-29)
same,"Visual Growth Reduction (%) 14 Days After Application, TRZSS","[2]; TRZSS (wheat, Triticum aestivum), crop, 70 g ai/ha",G (0-29)
same,"Visual Growth Reduction (%) 14 Days After Application, TRZSS","[2]; TRZSS (wheat, Triticum aestivum), crop, 140 g ai/ha",G (0-29)
same,"Visual Growth Reduction (%) 14 Days After Application, ZEAMX","[2]; ZEAMX: maize, corn (Zea mays), crop, 70 g ai/ha",G (0-29)
same,"Visual Growth Reduction (%) 14 Days After Application, ZEAMX","[2]; ZEAMX: maize, corn (Zea mays), crop, 140 g ai/ha",G (0-29)
COc1c(N)nc(-c2ccc(I)cc2)nc1C(=O)O [Compound 88],pest or weed control at 70 g/ha,"[1]; ABUTH: velvetleaf (Abutilon theophrasti), application rate 70 g ai/ha, read-out: Visual Growth Reduction (%) 14 Days After Application, ABUTH",75 to 84%
same,pest or weed control at 140 g/ha,"[1]; ABUTH: velvetleaf (Abutilon theophrasti), application rate 140 g ai/ha, read-out: Visual Growth Reduction (%) 14 Days After Application, ABUTH",95 to 100%
same,pest or weed control at 70 g/ha,"[1]; AMARE: redroot pigweed (Amaranthus retroflexus), application rate 70 g ai/ha, read-out: Visual Growth Reduction (%) 14 Days After Application, AMARE",85 to 94%
same,pest or weed control at 140 g/ha,"[1]; AMARE: redroot pigweed (Amaranthus retroflexus), application rate 140 g ai/ha, read-out: Visual Growth Reduction (%) 14 Days After Application, AMARE",85 to 94%
same,pest or weed control at 70 g/ha,"[1]; BRSNN: oilseed-rape, canola (Brassica napus), application rate 70 g ai/ha, read-out: Visual Growth Reduction (%) 14 Days After Application, BRSNN",95 to 100%
same,pest or weed control at 140 g/ha,"[1]; BRSNN: oilseed-rape, canola (Brassica napus), application rate 140 g ai/ha, read-out: Visual Growth Reduction (%) 14 Days After Application, BRSNN",95 to 100%
same,pest or weed control at 140 g/ha,"[1]; CHEAL: lambsquarters (Chenopodium album), application rate 140 g ai/ha, read-out: Visual Growth Reduction (%) 14 Days After Application, CHEAL",95 to 100%
same,pest or weed control at 70 g/ha,"[1]; EPHHL: wild poinsettia (Euphorbia heterophylla), application rate 70 g ai/ha, read-out: Visual Growth Reduction (%) 14 Days After Application, EPHHL",95 to 100%
same,pest or weed control at 140 g/ha,"[1]; EPHHL: wild poinsettia (Euphorbia heterophylla), application rate 140 g ai/ha, read-out: Visual Growth Reduction (%) 14 Days After Application, EPHHL",95 to 100%
same,pest or weed control at 70 g/ha,"[1]; HELAN: sunflower (Helianthus annuus), application rate 70 g ai/ha, read-out: Visual Growth Reduction (%) 14 Days After Application, HELAN",85 to 94%
same,pest or weed control at 140 g/ha,"[1]; HELAN: sunflower (Helianthus annuus), application rate 140 g ai/ha, read-out: Visual Growth Reduction (%) 14 Days After Application, HELAN",85 to 94%
same,pest or weed control at 70 g/ha,"[1]; VIOTR: wild pansy (Viola tricolor), application rate 70 g ai/ha, read-out: Visual Growth Reduction (%) 14 Days After Application, VIOTR",45 to 59%
same,pest or weed control at 140 g/ha,"[1]; VIOTR: wild pansy (Viola tricolor), application rate 140 g ai/ha, read-out: Visual Growth Reduction (%) 14 Days After Application, VIOTR",60 to 74%
same,pest or weed control at 70 g/ha,"[2]; CYPES: yellow nutsedge (Cyperus esculentus), 70 g ai/ha, read-out: Visual Growth Reduction (%) 14 Days After Application, CYPES",85 to 94%
same,pest or weed control at 140 g/ha,"[2]; CYPES: yellow nutsedge (Cyperus esculentus), 140 g ai/ha, read-out: Visual Growth Reduction (%) 14 Days After Application, CYPES",95 to 100%
same,pest or weed control at 70 g/ha,"[2]; DIGSA: crabgrass (Digitaria sanguinalis), 70 g ai/ha, read-out: Visual Growth Reduction (%) 14 Days After Application, DIGSA",0 to 29%
same,pest or weed control at 140 g/ha,"[2]; DIGSA: crabgrass (Digitaria sanguinalis), 140 g ai/ha, read-out: Visual Growth Reduction (%) 14 Days After Application, DIGSA",0 to 29%
same,pest or weed control at 70 g/ha,"[2]; ECHCG: barnyardgrass (Echinochloa crus-galli), 70 g ai/ha, read-out: Visual Growth Reduction (%) 14 Days After Application, ECHCG",75 to 84%
same,pest or weed control at 140 g/ha,"[2]; ECHCG: barnyardgrass (Echinochloa crus-galli), 140 g ai/ha, read-out: Visual Growth Reduction (%) 14 Days After Application, ECHCG",75 to 84%
same,pest or weed control at 70 g/ha,"[2]; ORYSA: rice (Oryza sativa), crop, 70 g ai/ha, read-out: Visual Growth Reduction (%) 14 Days After Application, ORYSA",0 to 29%
same,pest or weed control at 140 g/ha,"[2]; ORYSA: rice (Oryza sativa), crop, 140 g ai/ha, read-out: Visual Growth Reduction (%) 14 Days After Application, ORYSA",0 to 29%
same,pest or weed control at 70 g/ha,"[2]; SETFA: giant foxtail (Setaria faberi), 70 g ai/ha, read-out: Visual Growth Reduction (%) 14 Days After Application, SETFA",60 to 74%
same,pest or weed control at 140 g/ha,"[2]; SETFA: giant foxtail (Setaria faberi), 140 g ai/ha, read-out: Visual Growth Reduction (%) 14 Days After Application, SETFA",85 to 94%
same,pest or weed control at 70 g/ha,"[2]; SORVU: grain sorghum (Sorghum vulgare), 70 g ai/ha, read-out: Visual Growth Reduction (%) 14 Days After Application, SORVU",75 to 84%
same,pest or weed control at 140 g/ha,"[2]; SORVU: grain sorghum (Sorghum vulgare), 140 g ai/ha, read-out: Visual Growth Reduction (%) 14 Days After Application, SORVU",85 to 94%
same,pest or weed control at 70 g/ha,"[2]; TRZSS (wheat, Triticum aestivum), crop, 70 g ai/ha, read-out: Visual Growth Reduction (%) 14 Days After Application, TRZSS",60 to 74%
same,pest or weed control at 140 g/ha,"[2]; TRZSS (wheat, Triticum aestivum), crop, 140 g ai/ha, read-out: Visual Growth Reduction (%) 14 Days After Application, TRZSS",60 to 74%
same,pest or weed control at 70 g/ha,"[2]; ZEAMX: maize, corn (Zea mays), crop, 70 g ai/ha, read-out: Visual Growth Reduction (%) 14 Days After Application, ZEAMX",45 to 59%
same,pest or weed control at 140 g/ha,"[2]; ZEAMX: maize, corn (Zea mays), crop, 140 g ai/ha, read-out: Visual Growth Reduction (%) 14 Days After Application, ZEAMX",45 to 59%
